Columns and labels:
human mGluR2 receptor = target: T1, human mGluR2 receptor (Homo sapiens, UniProt Q14416); experiment: [35S]GTPγS binding assay (PAM assay) using membranes from CHO cells transfected with the human mGluR2 receptor; type: biochemical; conditions: in presence of mGluR2 agonist glutamate at a predetermined EC25 concentration; averages of duplicate values of 11-concentration response curves; error about 0.3 log-units; read-out: GTPgS-hR2 PAM pEC50 (converted)
T1 construct: expressed in transfected cells; host or cells: CHO cells
Description: The compounds provided in the present invention are positive allosteric modulators of mGluR2. These compounds appear to potentiate glutamate responses by binding to an allosteric site other than the glutamate binding site. The response of mGluR2 to a concentration of glutamate is increased when compounds of Formula (I) are present. Compounds of Formula (I) are expected to have their effect substantially at mGluR2 by virtue of their ability to enhance the function of the receptor. The behaviour of positive allosteric modulators tested at mGluR2 using the [^35S]GTPγS binding assay method described below and which is suitable for the identification of such compounds, and more particularly the compounds according to Formula (I), are shown in Table 4.
The [^35S]GTPγS binding assay is a functional membrane-based assay used to study G-protein coupled receptor (GPCR) function whereby incorporation of a non-hydrolysable form of GTP, [^35S]GTPγS (guanosine 5′-triphosphate, labelled with […] ^35S), is measured. The G-protein α subunit catalyzes the exchange of guanosine 5′-diphosphate (GDP) by guanosine triphosphate (GTP) and on activation of the GPCR by an agonist, [^35S]GTPγS, becomes incorporated and cannot be cleaved to continue the exchange cycle (Harper (1998) Current Protocols in Pharmacology 2.6.1-10, John Wiley & Sons, Inc.). […] Here we describe the use of the [^35S]GTPγS binding assay using membranes from cells transfected with the human mGluR2 receptor and adapted from Schaffhauser et al ((2003) Molecular Pharmacology 4:798-810) for the detection of the positive allosteric modulation (PAM) properties of the compounds of this invention.
CHO-cells were cultured to pre-confluence and stimulated with 5 mM butyrate for 24 hours, prior to washing in PBS (phosphate-buffered saline), and then collection by scraping in homogenisation buffer (50 mM Tris-HCl buffer, pH 7.4, 4° C.). Cell lysates were homogenized briefly (15 s) using an ultra-turrax homogenizer. The homogenate was centrifuged at 23 500×g for 10 min. and the supernatant discarded. The pellet was resuspended in 5 mM Tris-HCl, pH 7.4 and centrifuged again (30 000×g, 20 min., 4° C.). The final pellet was resuspended in 50 mM HEPES, pH 7.4 and stored at −80° C. in appropriate aliquots before use. Protein concentration was determined by the Bradford method (Bio-Rad, USA) with bovine serum albumin as standard.
Measurement of mGluR2 positive allosteric modulatory activity of test compounds in membranes containing human mGluR2 was performed using frozen membranes that were thawed and briefly homogenised prior to pre-incubation in 96-well microplates (15 μg/assay well, 30 minutes, 30° C.) in assay buffer (50 mM HEPES pH 7.4, 100 mM NaCl, 3 mM MgCl2, 50 μM GDP, 10 μg/ml saponin) with increasing concentrations of positive allosteric modulator (from 0.3 nM to 50 μM) and either a minimal pre-determined concentration of glutamate (PAM assay), or no added glutamate. For the PAM assay, membranes were pre-incubated with glutamate at EC25 concentration, i.e. a concentration that gives 25% of the maximal response glutamate, and is in accordance to published data (Pin et al. (1999) Eur. J. Pharmacol. 375:277-294). After addition of [^35S]GTPγS (0.1 nM, f.c.) to achieve a total reaction volume of 200 μl, microplates were shaken briefly and further incubated to allow [^35S]GTPγS incorporation on activation (30 minutes, 30° C.). The reaction was stopped by rapid vacuum filtration over glass-fibre filter plates (Unifilter 96-well GF/B filter plates, Perkin-Elmer, Downers Grove, USA) microplate using a 96-well plate cell harvester (Filtermate, Perkin-Elmer, USA), and then by washing three times with 300 μl of ice-cold wash buffer (Na2PO4.2H2O 10 mM, NaH2PO4.H2O 10 mM, pH=7.4). […]

T1 sequence (Q14416 19-872): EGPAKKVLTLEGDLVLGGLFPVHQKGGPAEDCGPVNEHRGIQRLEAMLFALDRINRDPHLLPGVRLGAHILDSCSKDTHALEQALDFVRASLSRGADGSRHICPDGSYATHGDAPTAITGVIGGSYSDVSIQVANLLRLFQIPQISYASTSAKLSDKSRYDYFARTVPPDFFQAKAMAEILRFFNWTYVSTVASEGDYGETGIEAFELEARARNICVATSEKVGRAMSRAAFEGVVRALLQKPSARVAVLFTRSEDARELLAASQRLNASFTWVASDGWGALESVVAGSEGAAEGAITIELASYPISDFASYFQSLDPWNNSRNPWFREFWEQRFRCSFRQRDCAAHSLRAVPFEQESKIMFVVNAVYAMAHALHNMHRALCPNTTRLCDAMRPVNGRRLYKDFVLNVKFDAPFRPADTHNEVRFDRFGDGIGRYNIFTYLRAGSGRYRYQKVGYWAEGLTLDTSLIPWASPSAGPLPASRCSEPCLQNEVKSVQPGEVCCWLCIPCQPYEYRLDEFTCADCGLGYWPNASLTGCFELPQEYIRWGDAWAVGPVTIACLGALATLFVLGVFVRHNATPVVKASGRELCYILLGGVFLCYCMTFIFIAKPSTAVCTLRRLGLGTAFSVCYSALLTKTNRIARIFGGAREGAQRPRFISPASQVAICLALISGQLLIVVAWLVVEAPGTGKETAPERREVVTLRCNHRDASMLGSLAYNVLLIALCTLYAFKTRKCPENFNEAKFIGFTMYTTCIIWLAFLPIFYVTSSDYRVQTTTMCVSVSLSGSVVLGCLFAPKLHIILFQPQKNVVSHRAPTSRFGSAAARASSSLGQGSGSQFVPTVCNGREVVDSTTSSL

| EC50 (human mGluR2 receptor) [µM] | melting point [°C] | SMILES |
| --- | --- | --- |
| 0.302 | – | CCCCn1ccc(-c2ccc3c(ccn3[C@H]3CC[C@@](C)(O)CC3)c2)c(Cl)c1=O [Compound 6, cis-1-Butyl-3-chloro-4-[1-(4-hydroxy-4-methyl-cyclohexyl)-1H-indol-5-yl]-1H-pyridin-2-one] |
| 0.0759 | – | CCCCn1ccc(-c2ccc3c(ccn3[C@H]3CC[C@](C)(O)CC3)c2)c(Cl)c1=O [Compound 5, trans-1-Butyl-3-chloro-4-[1-(4-hydroxy-4-methyl-cyclohexyl)-1H-indol-5-yl]-1H-pyridin-2-one] |
| 0.0891 | 182.3 | CC(C)CCn1ccc(-c2ccc3c(ccn3[C@H]3CC[C@H](O)CC3)c2)c(Cl)c1=O [Compound 7, trans-3-Chloro-4-[1-(4-hydroxy-cyclohexyl)-1H-indol-5-yl]-1-(3-methyl-butyl)-1H-pyridin-2-one] |
| 0.102 | – | CCCCn1ccc(-c2ccc3c(ccn3[C@H]3CC[C@H](O)CC3)c2)c(Cl)c1=O [Compound 3, trans-1-Butyl-3-chloro-4-[1-(4-hydroxy-cyclohexyl)-1H-indol-5-yl]-1H-pyridin-2-one] |
| 0.148 | – | CCCCn1ccc(-c2ccc3c(ccn3[C@H]3CC[C@@H](O)CC3)c2)c(Cl)c1=O [Compound 4, cis-1-Butyl-3-chloro-4-[1-(4-hydroxy-cyclohexyl)-1H-indol-5-yl]-1H-pyridin-2-one] |
| 0.302 | 209.4 | O=c1c(Cl)c(-c2ccc3c(ccn3[C@H]3CC[C@H](O)CC3)c2)ccn1CC1CC1 [Compound 8, trans-3-Chloro-1-cyclopropylmethyl-4-[1-(4-hydroxy-cyclohexyl)-1H-indol-5-yl]-1H-pyridin-2-one] |
| 0.589 | – | CCCCn1ccc(-c2ccc3c(c2)OCCN3C2CCOCC2)c(Cl)c1=O [Compound 1, 1-Butyl-3-chloro-4-[4-(tetrahydro-pyran-4-yl)-3,4-dihydro-2H-benzo[1,4]oxazin-7-yl]-1H-pyridin-2-one] |
| 0.309 | – | CCCCn1ccc(-c2ccc3c(ccn3C3CCOCC3)c2)c(Cl)c1=O [Compound 9, 1-Butyl-3-chloro-4-[1-(tetrahydro-pyran-4-yl)-1H-indol-5-yl]-1H-pyridin-2-one] |

Reference: US8697689B2, “Indole and benzomorpholine derivatives as modulators of metabotropic glutamate receptors” (Janssen Pharmaceuticals, Inc., priority 2008, dated 2014)
